According to paper PMC11887451, “Leveraging Immunogenic Cell Death to Enhance the Immune Response against Malignant Pleural Mesothelioma Tumors” (Journal of the American Chemical Society, 2025):

What was measured:
[1] = tested on: human malignant mesothelioma cell line LO68; experiment: MTT cytotoxicity assay, 72 h, LO68; assay type: cell-based; conditions: exposure time 72 h
[2] = tested on: patient-derived Meso92 cell line (biphasic MPM); experiment: MTT cytotoxicity assay, 72 h, Meso92; assay type: cell-based, human; conditions: exposure time 72 h
From the text: Cell lines and culture conditions
Mouse malignant mesothelioma cancer cell line AB12, human nonmalignant mesothelioma cancer cell line Met5A (mesothelial cells), mouse macrophage cell line J774 and human monocytic cell line THP-1 were obtained from American Type Culture Collection (ATCC) (Rockville, MD, USA). Human malignant mesothelioma cell lines VMC23 (epithelial), Meso82 (sarcomatous), Meso92 (biphasic), were kindly provided by Prof. Walter Berger (Medical University of Vienna). All cells except for J774 were cultured in RPMI and J774 cells were cultured in DMEM. Both types of media were supplemented with 10% FBS and 1% penicillin-streptomycin (10,000 U/mL). Cells were grown in tissue culture flasks (75 cm2 and 25 cm2, SPL Life Sciences Co., Ltd., Korea). All cell lines were grown at 37 °C in a humidified atmosphere of 95% air and 5% CO 2 and passaged when they reached 80–90% confluency. All Au stock solutions were prepared in 1% DMSO in the respected medium, ensuring that cell viability was not inhibited. The Au concentration in the stock solutions was confirmed through inductively coupled plasma optical emission spectrometry. The stock solution of pemetrexed (10 mM) was prepared in Milli -Q water.
Inhibition of c ell viability assay
(§1) The cytotoxicity of compounds was determined using an MTT colorimetric test. The cells were harvested from culture flasks by trypsinization and seeded into Cellstar 96 -well microculture plates (Greiner Bio -One) at the seeding density of 6000 cells per well (6 × 10^4 cells/mL). After
(§2) the cells were allowed to resume exponential growth for 16 h, they were exposed to drugs at
(§3) different concentrations in media for 72 h. The drugs were diluted in a complete medium at the desired concentration added to each well (100 μL) and serially diluted in other wells. After exposure for 72 h, the media was replaced with MTT in media (5 mg/mL, 100 μL/well) and
(§4) incubated for an additional 50 min. Subsequently, the medium was aspirated, and the purple formazan crystals formed in viable cells were dissolved in DMSO (100 μL/well). Optical densities were measured at 570 nm using a BioTek Synergy H1 microplate and MultiskanTM SkyHigh plate readers. The quantity of viable cells was expressed in terms of treated/control (T/C) values in comparison to untreated control cells, and 50% inhibitory concentrations (IC 50) were calculated from concentration-effect curves by interpolation. An evaluation was based on means from at least three independent experiments, each comprising three replicat es per

[3] = Aqueous stability by RP-HPLC in 1:1 DMSO:H2O over 72 h; assay type: physicochemical; conditions: room temperature
Procedure: The aqueous stability of the Au(III)–DTC complexes was assessed by monitoring their RP-HPLC profiles in a 1:1 DMSO:H2O mixture at room temperature over a 3-day period (Supplementary Figures 112–146).
Determination of the purity of cyclometalated Au( III) complexes was performed using analytical HPLC on a Shimadzu Prominence System equipped with a DGU -20A3 Degasser, two LC-20AD Liquid Chromatography Pump, a SPD-20A UV/Vis Detector and a Shim Pack GVP-ODS 2.0 mm 18 column ([…], 120Å, 250 mm × 4.60 mm i.d.). The analysis was conducted at r.t. with a flow rate of 1.0 mL/min and detection at 254 and 280 nm. Mobile phase A was H2O + 0.1% Trifluoroacetic acid (TFA) while mobile phase B is ACN + 0.1% TFA. The gradient program parameters were as follows: mobil e phase B was increased from 30 to 95% over 30 min. 95% mobile phase B was maintained for 10 min, 95 to 30% over 5 min, and finally returned to 30% for 10 min for the next analysis. LogP values of the complexes were calculated based on the HPLC retention times derived from the calibration standard curve. The calibration standard curve was established using 2-butanone, phenylacetonitrile, anisole, ethyl benzoate, benzophenone, diphenyl ether and triphenylamine. To conduct an aqueous stability study, the HPLC profiles of the sample stock solutions were diluted to a 1:1 ratio of DMSO to […]
water. […]

[4] = tested on: patient-derived VMC23 cell line (epithelioid MPM); experiment: MTT cytotoxicity assay, 72 h, VMC23; assay type: cell-based, human; conditions: exposure time 72 h
From the text: (§5) Human malignant mesothelioma cancer cell lines JU77 and LO68 were obtained from Cell Bank Australia (Children's Medical Research Institute, Westmead, Australia). Mouse malignant mesothelioma cancer cell line AB12, human nonmalignant mesothelioma cancer cell line Met5A (mesothelial cells), mouse macrophage cell line J774 and human monocytic cell line THP-1 were obtained from American Type Culture Collection (ATCC) (Rockville, MD, USA). Human malignant mesothelioma cell lines VMC23 (epithelial), Meso82 (sarcomatous), Meso92 (biphasic), were kindly provided by Prof. Walter Berger (Medical University of Vienna). All cells except for J774 were cultured in RPMI and J774 cells were cultured in DMEM. Both types of media were supplemented with 10% FBS and 1% penicillin-streptomycin (10,000 U/mL). Cells were grown in tissue culture flasks (75 cm2 and 25 cm2, SPL Life Sciences Co., Ltd., Korea). All cell lines were grown at 37 °C in a humidified atmosphere of 95% air and 5% CO 2 and passaged when they reached 80–90% confluency. All Au stock solutions were prepared in 1% DMSO in the respected medium, ensuring that cell viability was not inhibited.
as §1, §2, §3, §4
(§6) DMSO had not impact on the cell viability at the concentrations used.

[5] = tested on: human nonmalignant mesothelioma cell line Met5A; experiment: MTT cytotoxicity assay, 72 h, Met5A; assay type: cell-based; conditions: exposure time 72 h
[6] = tested on: human malignant mesothelioma cell line JU77; experiment: MTT cytotoxicity assay, 72 h, JU77; assay type: cell-based; conditions: exposure time 72 h
From the text: as §5, §1, §2, §3, §4, §6

[7] = tested on: murine malignant mesothelioma cell line AB12; experiment: MTT cytotoxicity assay, 72 h, AB12; assay type: cell-based, mouse; conditions: exposure time 72 h
From the text: as §5, §1, §2, §3, §4, §6

[8] = tested on: patient-derived Meso84 cell line (sarcomatoid MPM); experiment: MTT cytotoxicity assay, 72 h, Meso84; assay type: cell-based, human; conditions: exposure time 72 h

Row | SMILES | IC50 [1] [nM] | IC50 [2] [nM] | hydrolysis over the 72-h period [3] | minor RP-HPLC peak, share of the total area after 24 h [3] [%] | minor RP-HPLC peak, share of the total area after 72 h [3] | IC50 [4] [nM] | IC50 [5] [nM] | IC50 [6] [nM] | IC50 [7] [nM] | IC50 [8] [nM]
1 | CC[N+](=C1[S][Au-]2([S]1)[c]1ccccc1C(OC)c1cccc[n+]12)c1ccccc1.F[P-](F)(F)(F)(F)F (racemic) [4E] | 4500 ± 500 | 5300 ± 200 | less than 10% | 5 | 7% | 4300 ± 800 | 1400 ± 300 | 3200 ± 300 | 1900 ± 400 | 2300 ± 600
2 | CC[N+](CC)=C1[S][Au-]2([S]1)[c]1ccccc1Cc1cccc[n+]12.F[P-](F)(F)(F)(F)F (stereo not drawn) [2B] | 2200 ± 400 | 6200 ± 1700 | – | – | – | 6600 ± 1700 | 530 ± 80 | 3000 ± 400 | 300 ± 60 | 420 ± 120
3 | CC[N+](CC)=C1[S][Au-]2([S]1)[c]1ccccc1C(=O)c1cccc[n+]12.F[P-](F)(F)(F)(F)F (stereo not drawn) [3B] | 930 ± 180 | 1100 ± 300 | – | – | – | 7500 ± 1400 | 1400 ± 100 | 1200 | 220 ± 10 | 1400 ± 300
4 | CC[N+](=C1[S][Au-]2([S]1)[c]1ccccc1-c1cccc[n+]12)c1ccccc1.F[P-](F)(F)(F)(F)F (stereo not drawn) [1E] | 2300 ± 300 | 2000 ± 300 | – | – | – | 1300 ± 200 | 690 ± 130 | 850 ± 100 | 840 ± 200 | 1200 ± 100
5 | CC[N+](=C1[S][Au-]2([S]1)[c]1ccccc1Cc1cccc[n+]12)c1ccccc1.F[P-](F)(F)(F)(F)F (stereo not drawn) [2E] | 2300 ± 100 | 1600 ± 200 | less than 10% | 4 | remained unchanged | 2000 ± 600 | 3000 ± 600 | 1600 ± 200 | 2700 ± 600 | 1600 ± 400
6 | F[P-](F)(F)(F)(F)F.c1cc[c]2c(c1)Cc1cccc[n+]1[Au-]21[S]C(=[N+]2CCCC2)[S]1 (stereo not drawn) [2F] | 720 ± 120 | 1000 ± 300 | less than 10% | 5 | 9% | 970 ± 260 | 730 ± 120 | 1100 ± 100 | 290 ± 40 | 560 ± 100
